Assay results: patent publication EP0539588A1, “AMINE DERIVATIVE” (NIPPON SODA CO., LTD., priority 1990, dated 1992)
Read-outs that look alike come from different tables or passages of the source.

What was measured:
[1] = tested on: resistant-strain of planthoppers for organophosphate and carbamate insecticides; experiment: Efficacy against planthoppers (rice seedling dip); type: in vivo; settings: Oryza sativa, 120 h, read-out: Mortality (5days later) 125 ppm
From the text: Test Example 2: Efficacy against planthoppers
Young seedlings of rice plant at the stage of 7 days after germination were dipped for 30 seconds in the compound solution of the emulsifiable concentrate according to the recipe of Example 6 adjusted to 125 ppm concentration by diluting with water. After seedlings were dried, they were put into the inside of test tubes and 10 third instar larva of resistant-strain of planthoppers for organophosphate and carbamate insecticides were respectively inoculated in each test tube. The test tubes were shielded with gauze and allowed to stand in the incubator maintained at 25°C and 65% R.H., then the percentage killed were counted after 5 days.

[2] = tested on: Cotton aphids; experiment: Efficacy against cotton aphids (spray on cucumber leaves); type: in vivo; settings: for mortality at 125 ppm: 168 h, read-out: Control E fficacy (7 days later) 125ppm
Experimental: Test Example 1: Efficacy against cotton aphids
Cotton aphids were inoculated at the rate of 30-50 aphids per plot on 10 days old cucumber leaves grown in 10 cm pot by using small brush respectively. The aphids injured during inoculation were eliminated after one day, then the compound solution adjusted to 125 ppm concentration by dilution emulsifiable concentrate according to the recipe of the Example 6 with water was sprayed thereto. The aphids were allowed to stand in incubator maintained at 25 °C and 65% R.H., then counted the number of living aphids after 7 days whereby the control ratio was determined in comparison with the untreated plot.

[3] = rice seedlings dipped 30 seconds in 125 ppm solution, 10 third instar larva per test tube, percentage killed after 5 days, 25°C, 65% R.H.
[4] = 125 ppm spray of emulsifiable concentrate (Example 6) on cucumber leaves, living aphids counted after 7 days, compared with the untreated plot, 25 °C, 65% R.H.

CC1CC(=O)C=C(NCc2ccc(Cl)nc2)C1 (stereo not shown) [compound 34]
mortality at 125 ppm [1, 3]: 100%

O=C1C=C(N(Cc2ccc(Cl)nc2)C2CC2)CO1 [compound 88]
mortality at 125 ppm [2, 4]: 100% | mortality at 125 ppm [1, 3]: 100%

CN(Cc1ccc(Cl)nc1)C1=CC(=O)OC1 [compound 84]
mortality at 125 ppm [2, 4]: 100% | mortality at 125 ppm [1, 3]: 100%

Cc1nc(N(C)C)nc(OC(=O)N(C)C)c1C [Comparative Compound A, Pyrimicarb, reference compound]
Control E fficacy (7 days later) 125ppm [2, 4]: 0%

CC1OC(=O)C=C1NCc1ccc(Cl)nc1 (stereo not shown) [compound 116]
mortality at 125 ppm [2, 4]: 100% | mortality at 125 ppm [1, 3]: 100%

O=C1C=C(NCc2ccc(Cl)nc2)CSC1 [compound 80]
mortality at 125 ppm [1, 3]: 100%

Cc1cc(NCc2ccc(Cl)nc2)c([N+](=O)[O-])c(=O)n1C [compound 69]
mortality at 125 ppm [1, 3]: 100%

O=C1C=C(NCc2ccc(Cl)nc2)CS1 [compound 111]
mortality at 125 ppm [2, 4]: 100% | mortality at 125 ppm [1, 3]: 100%

O=C1C=C(NCc2ccc(Cl)nc2)CCC1 [Compound No. 1, 1-(2-chloro-5-pyridylmethylamino)-1-cyclohexene-3-on]
mortality at 125 ppm [2]: 100% | mortality at 125 ppm [1]: 100%

O=C1OCC(NCc2ccc(Cl)nc2)=C1Br [compound 103]
mortality at 125 ppm [2, 4]: 100% | mortality at 125 ppm [1, 3]: 100%

CCN(Cc1ccc(Cl)nc1)C1=CC(=O)OC1 [compound 85]
mortality at 125 ppm [2, 4]: 100% | mortality at 125 ppm [1, 3]: 100%

CN(Cc1cnc(Cl)s1)C1=CC(=O)OC1 [compound 144]
mortality at 125 ppm [2, 4]: 100% | mortality at 125 ppm [1, 3]: 100%

O=C1C=C(N(Cc2ccc(Cl)nc2)C(=O)C2CC2)CO1 [compound 96]
mortality at 125 ppm [1, 3]: 100%

O=C1C=C(NCc2ccc(Cl)nc2)CCO1 [compound 74]
mortality at 125 ppm [2, 4]: 100% | mortality at 125 ppm [1, 3]: 100%

C=CCN(Cc1ccc(Cl)nc1)C1=CC(=O)OC1 [compound 91]
mortality at 125 ppm [2, 4]: 100% | mortality at 125 ppm [1, 3]: 100%

O=C1OCC(N(Cc2ccc(Cl)nc2)C2CC2)=C1F [compound 105]
mortality at 125 ppm [2, 4]: 100% | mortality at 125 ppm [1, 3]: 100%

O=C1CCCC(NCc2ccc(Cl)nc2)=C1Cl [compound 23]
mortality at 125 ppm [1, 3]: 100%

CN1C(=O)C([N+](=O)[O-])=C(NCc2ccc(Cl)nc2)N(C)S1(=O)=O [compound 73]
mortality at 125 ppm [1, 3]: 100%

CON(Cc1ccc(Cl)nc1)C1=CC(=O)OC1 [compound 98]
mortality at 125 ppm [2, 4]: 100% | mortality at 125 ppm [1, 3]: 100%

CC1OC(=O)C=C1N(C)Cc1ccc(Cl)nc1 (stereo not shown) [compound 117]
mortality at 125 ppm [2, 4]: 100% | mortality at 125 ppm [1, 3]: 100%

CN(Cc1ccc(Cl)nc1)C1=CC(=O)CC1 [compound 175]
mortality at 125 ppm [2, 4]: 100% | mortality at 125 ppm [1, 3]: 100%

CCOC(=O)CC(SP(=S)(OC)OC)C(=O)OCC (stereo not shown) [Comparative Compound B, Malathion, reference compound]
mortality at 125 ppm [1]: 0%

CN(Cc1ccc(Cl)nc1)C1=CC(=O)OCC1 [compound 82]
mortality at 125 ppm [2, 4]: 100% | mortality at 125 ppm [1, 3]: 100%

CCCN(Cc1ccc(Cl)nc1)C1=CC(=O)OC1 [compound 86]
mortality at 125 ppm [2, 4]: 100% | mortality at 125 ppm [1, 3]: 100%

CC1CCC(NCc2ccc(Cl)nc2)=CC1=O (stereo not shown) [compound 29]
mortality at 125 ppm [2, 4]: 100% | mortality at 125 ppm [1, 3]: 100%

CC1=C(N(C)Cc2ccc(Cl)nc2)CCC1=O [compound 187]
mortality at 125 ppm [1, 3]: 100%

O=C1C=C(NCc2cnc(Cl)s2)CO1 [compound 143]
mortality at 125 ppm [2, 4]: 100% | mortality at 125 ppm [1, 3]: 100%

CC1CC(NCc2ccc(Cl)nc2)=CC(=O)O1 (stereo not shown) [compound 75]
mortality at 125 ppm [2, 4]: 100% | mortality at 125 ppm [1, 3]: 100%

O=C1C=C(NCc2ccc(Cl)nc2)CO1 [compound 83]
mortality at 125 ppm [2, 4]: 100% | mortality at 125 ppm [1, 3]: 100%

O=C1C=C(NCc2cnc(Cl)s2)CCC1 [compound 59]
mortality at 125 ppm [2, 4]: 100% | mortality at 125 ppm [1, 3]: 100%

CSC1CCC(NCc2ccc(Cl)nc2)=CC1=O (stereo not shown) [compound 31]
mortality at 125 ppm [2, 4]: 100% | mortality at 125 ppm [1, 3]: 100%

CN(Cc1cnc(Cl)s1)C1=CC(=O)CCC1 [compound 60]
mortality at 125 ppm [2, 4]: 100% | mortality at 125 ppm [1, 3]: 100%

Cc1cc(NCc2ccc(Cl)nc2)cc(=O)o1 [Compound No. 77, 4-(2-chloro-5-pyridylmethylamino)-6-methylpyran-2-on]
mortality at 125 ppm [1]: 100%

CC(C)CN(Cc1ccc(Cl)nc1)C1=CC(=O)OC1 [compound 89]
mortality at 125 ppm [2, 4]: 100% | mortality at 125 ppm [1, 3]: 100%

CSC1CCC(N(C)Cc2ccc(Cl)nc2)=CC1=O (stereo not shown) [compound 42]
mortality at 125 ppm [1, 3]: 100%

Cn1c(NCc2ccc(Cl)nc2)cc(=O)n(C)c1=O [Compound No. 70, 4-(2-chloro-5-pyridylmethylamino)-1,3-dimethyluracil]
mortality at 125 ppm [1, 3]: 100%

CN(Cc1ccc(Cl)nc1)C1=C(F)C(=O)OC1 [compound 104]
mortality at 125 ppm [2, 4]: 100% | mortality at 125 ppm [1, 3]: 100%

CC1(C)CCC(NCc2ccc(Cl)nc2)=CC1=O [compound 30]
mortality at 125 ppm [1, 3]: 100%

Cn1c(NCc2ccc(Cl)nc2)c([N+](=O)[O-])c(=O)n(C)c1=O [Compound No. 71, 4-(2-chloro-5-pyridylmethylamino)-1,3-dimethyl-5-nitrouracil]
mortality at 125 ppm [1, 3]: 100%

CN1CC(NCc2ccc(Cl)nc2)=CC1=O [compound 161]
mortality at 125 ppm [1, 3]: 100%

CN(Cc1ccc(Cl)nc1)C1=CC(=O)SC1 [compound 112]
mortality at 125 ppm [2, 4]: 100% | mortality at 125 ppm [1, 3]: 100%
